“Also recorded” adds a separate entry of the source.
Tests used:
C. jeikeium = experiment: Kill or inhibit growth/proliferation; morphology, biofilm and growth disruption (Tables 5, 6); assay type: cell-based, Corynebacterium jeikeium; design: key: A: Peptide aggregates; B: Less hyphal formation; Clumps; Diffuse clumps and small polyps; F: Diffuse growth; H: Thin; I: Growth inhibition; Microcolony formation; Rippled; Small polyps; Thick; W: Halo formation on top, microlonies on bottom; further: test concentration or dose not given here
E. faecalis = experiment: as above; assay type: cell-based, Enterococcus faecalis; design: key: A: Peptide aggregates; B: Less hyphal formation; Clumps; Diffuse clumps and small polyps; F: Diffuse growth; H: Thin; I: Growth inhibition; Microcolony formation; Rippled; Small polyps; Thick; W: Halo formation on top, microlonies on bottom
MRSA = experiment: as above; assay type: cell-based, Methicillin-resistant Staphylococcus aureus; design: key: A: Peptide aggregates; B: Less hyphal formation; Clumps; Diffuse clumps and small polyps; F: Diffuse growth; H: Thin; I: Growth inhibition; Microcolony formation; Rippled; Small polyps; Thick; W: Halo formation on top, microlonies on bottom
S. epidermidis = experiment: as above; assay type: cell-based, Staphylococcus epidermidis; design: key: A: Peptide aggregates; B: Less hyphal formation; Clumps; Diffuse clumps and small polyps; F: Diffuse growth; H: Thin; I: Growth inhibition; Microcolony formation; Rippled; Small polyps; Thick; W: Halo formation on top, microlonies on bottom
S. pneumoniae = experiment: as above; assay type: cell-based, Streptococcus pneumoniae; design: key: A: Peptide aggregates; B: Less hyphal formation; Clumps; Diffuse clumps and small polyps; F: Diffuse growth; H: Thin; I: Growth inhibition; Microcolony formation; Rippled; Small polyps; Thick; W: Halo formation on top, microlonies on bottom; further: test concentration or dose not given here
[1] = test system: microorganisms (e.g., bacteria, yeasts, fungi); experiment: Targeting peptide binding to target microorganisms (Table 3); conditions: preferably 1x PBS; for Target(s) (microorganisms bound by the targeting peptide): peptide binding in aqueous buffers varied by peptide solubility
microorganisms = experiment: Peptides having multiple activities (targeting/binding, antimicrobial, growth or phenotype altering)
Source text: In certain embodiments, peptides described herein can have multiple activities. Thus for example, a peptide can have both binding/targeting activity and antimicrobial activity. Such peptides can be used, e.g., in a chimeric construct, for any or all of these properties. Thus, for example, a peptide designated “B” in Table 8 can be used as a targeting peptide. If it is also designated G or M it can also be used for antimicrobial activity.

[2] = microorganism(s) the targeting peptide binds, binding in aqueous buffers depending on peptide solubility
[3] = microorganism the targeting peptide binds, binding in aqueous buffers varied by peptide solubility
Wherever Organism, effect (morphology, biofilm and growth disruption) is given: test concentration or dose not given here.
Wherever Organism, effect is given: test concentration or dose not given here.

| Substance | Organism, effect (C. jeikeium) | Organism, effect (MRSA) | Organism, effect (S. epidermidis) | Activities (microorganisms) | Target(s) [1, 2] | further results |
| --- | --- | --- | --- | --- | --- | --- |
| PF-629: peptide having multiple activities (chain 1 GLAAIATVFALY; chain 2 GLAAIATVFALY; Peptide with targeting and/or antimicrobial activity) | C. jeikeium (R) | MRSA (D) | S. epidermidis (C) | G B | – | Organism, effect (E. faecalis): E. faecalis (R); Organism, effect (S. pneumoniae): S. pneumoniae (M); Target(s) (microorganisms bound by the targeting peptide) [1]: S. epidermidis and P. aeruginosa and C. albicans and MRSA and S. pneumoniae and E. faecalis and C. jeikeium |
| PF-186: peptide having multiple activities (DADKNLSLERDRFAWRVAAP; Peptide with targeting and/or antimicrobial activity) | C. jeikeium (A) | – | S. epidermidis (C) | G B | S. epidermidis and M. luteus and E. coli and P. aeruginosa and MRSA and C. jeikeium | – |
| PF-153: peptide having multiple activities (GILARADCSQIA; Peptide with targeting and/or antimicrobial activity) | C. jeikeium (C) | – | S. epidermidis (M) | G B | M. luteus and P. mirabilis and E. coli and MRSA | – |
| PF-129: peptide having multiple activities (MKLLARDPWVCAWNDIW; Peptide with targeting and/or antimicrobial activity) | C. jeikeium (R) | – | S. epidermidis (M) | G B | S. epidermidis and MRSA and E. faecalis and C. jeikeium and C. jejuni | – |
| PF-032 (RIVVPAHQSNMASTPNLSITP; Peptide with targeting and/or antimicrobial activity) | C. jeikeium (C) | – | S. epidermidis (S) | – | – | – |
| PF-099: peptide having multiple activities (EIIAYLEGRFANA; Peptide with targeting and/or antimicrobial activity) | C. jeikeium (C) | – | S. epidermidis (D) | G B | S. epidermidis; also recorded: M. luteus; also recorded: E. coli; also recorded: C. jeikeium | – |
| PF-191: peptide having multiple activities (QFCNFAWLFLASNNAQVSALA; Peptide with targeting and/or antimicrobial activity) | C. jeikeium (R) | MRSA (H) | S. epidermidis (A) | G B | E. coli; also recorded: P. aeruginosa; also recorded: C. jejuni | – |
| ALDCSEQSVILWYETILDKIVGVIK [PF-028] | C. jeikeium (M) | MRSA (R) | S. epidermidis (M) | G B | – | Target(s) [1, 3]: S. epidermidis and M. luteus and MRSA |
| PF-048: peptide having multiple activities (chain 1 LYFAFKKYQERVNQAPNIEY; chain 2 LYFAFKKYQERVNQAPNIEY; Peptide with targeting and/or antimicrobial activity) | C. jeikeium (S) | MRSA (W) | S. epidermidis (D) | G B | – | Target(s) [1, 3]: S. epidermidis and M. luteus and E. coli and MRSA and C. jeikeium and C. jejuni |
| PF-196: peptide having multiple activities (TTARYIRRQCHTSITPLSQG; Peptide with targeting and/or antimicrobial activity) | C. jeikeium (R) | – | S. epidermidis (C) | G B | – | – |
| PF-065: peptide having multiple activities (LEKNTRDNYFIHAIDRIYINTSKGLFPESELVAWG; Peptide with targeting and/or antimicrobial activity) | C. jeikeium (A) | MRSA (R) | S. epidermidis (D) | G B | – | Target(s) [1, 3]: M. luteus and E. coli and P. aeruginosa and C. albicans and MRSA and S. pneumoniae and C. jeikeium and C. jejuni |
| PF-657 (chain 1 YVANYTITQFGRDFDDRLAVAIHFA; chain 2 YVANYTITQFGRDFDDRLAVAIHFA; Peptide with targeting and/or antimicrobial activity) | – | – | – | – | – | Organism, effect (morphology, biofilm and growth disruption) (C. jeikeium): C. jeikeium (D); Organism, effect (morphology, biofilm and growth disruption) (E. faecalis): E. faecalis (D); Organism, effect (morphology, biofilm and growth disruption) (MRSA): MRSA (D); Organism, effect (morphology, biofilm and growth disruption) (S. epidermidis): S. epidermidis (C); Organism, effect (morphology, biofilm and growth disruption) (S. pneumoniae): S. pneumoniae (H); Target(s) (microorganisms bound by the targeting peptide) [1]: Mycobacteria spp |
| PF-173: peptide having multiple activities (AGRTAIVQGGG; Peptide with targeting and/or antimicrobial activity) | C. jeikeium (D) | – | S. epidermidis (A) | G B | S. epidermidis; also recorded: M. luteus; also recorded: P. mirabilis; also recorded: E. coli; also recorded: P. aeruginosa; also recorded: C. albicans; also recorded: C. jeikeium; also recorded: C. jejuni | – |
| PF-208: peptide having multiple activities (DAYHCHLVRSPDAHDLSMRIGFV; Peptide with targeting and/or antimicrobial activity) | C. jeikeium (A) | – | S. epidermidis (D) | G B | S. epidermidis and C. albicans and MRSA and S. pneumoniae and E. faecalis and C. jeikeium and C. jejuni | – |
| PF-685 (chain 1 PTLWLACL; chain 2 PTLWLACL; Peptide with targeting and/or antimicrobial activity) | – | – | – | – | – | Organism, effect (morphology, biofilm and growth disruption) (C. jeikeium): C. jeikeium (R); Organism, effect (morphology, biofilm and growth disruption) (E. faecalis): E. faecalis (R); Organism, effect (morphology, biofilm and growth disruption) (MRSA): MRSA (M); Organism, effect (morphology, biofilm and growth disruption) (S. epidermidis): S. epidermidis (M); Organism, effect (morphology, biofilm and growth disruption) (S. pneumoniae): S. pneumoniae (M); Target(s) (microorganisms bound by the targeting peptide) [1]: Mycobacteria spp |
| PF-190: peptide having multiple activities (HFILRKPLLFMIHSLKTGPLDRF; Peptide with targeting and/or antimicrobial activity) | C. jeikeium (R) | – | S. epidermidis (C) | G B | – | – |
| PF-203: peptide having multiple activities (SWKCHHLAI; Peptide with targeting and/or antimicrobial activity) | C. jeikeium (R) | – | S. epidermidis (A) | G B | – | – |
| PF-046: peptide having multiple activities (chain 1 LDFYLTKHLTLML; chain 2 LDFYLTKHLTLML; Peptide with targeting and/or antimicrobial activity) | C. jeikeium (R) | MRSA (R) | S. epidermidis (C) | G B | – | Target(s) [1, 3]: E. coli; also recorded: E. faecalis; also recorded: C. jeikeium |
